Laboratory results reported in patent publication US20170260169A1, “INHIBITORS FOR STEROID RESPONSE ELEMENTS AND RNA POLYMERASE II AND RELATED METHODS” (priority 2007, published 2017).

Legend:
ARE of the PSA promoter = assay: Quantitative DNase I footprint titration on pAR-PSA fragment; format: binding
Source text: Plasmid pAR-PSA was constructed by inserting a 70-bp sequence from the PSA promoter containing the ARE into pUC19 plasmid. […] Detailed experimental protocols are reported elsewhere (44). The proximal PSA promoter contains the ARE [NT] ID NO:15) (FIG. 8A). […] However, 1 is observed to bind the sequence [NT]≈12 bp 5' to the ARE, which is an expected binding site for this molecule.

[1] = test system: binding of LNCaP nuclear extract factors to the ARE site in the PSA promoter; assay: Electrophoretic mobility shift assay with DHT-stimulated LNCaP nuclear extract; format: biochemical; settings: same concentrations
Procedure: containing the PSA promoter ARE (underlined) was end-labeled with ^32P and annealed to its complement. Polyamides 1 and 2 were incubated with the duplex for 3 h in previously optimized buffer conditions (45). Nuclear extract from DHT-treated LNCaP cells (Genetex, San Antonio, Tex.) was then added for an additional 45 min. Complexes were run on a 5% polyacrylamide gel and visualized on a phosphorimager.
The effects of polyamides 1 and 2 on the binding of factors present in the nuclear extract isolated from DHT-stimulated LNCaP cells to the ARE site in the PSA promoter was measured by an electrophoretic mobility shift assay (FIG. 8D).

[2] = test system: PSA mRNA expression in LNCaP cells; assay: DHT-induced PSA mRNA in LNCaP cells, quantitative real-time RT-PCR; format: cell-based
Procedure: LNCaP cells (ATCC) were plated in 24-well plates at a density of 40-50×10^3 cells per well (80-100×10^3 cells per ml) in RPMI medium 1640 (ATCC) supplemented with 10% FBS (Irvine Scientific, Santa Ana, Calif.). After 72 h, the medium was replaced with RPMI medium 1640 containing 10% charcoal stripped FBS with or without polyamides at the designated concentrations. Cells were grown for an additional 48 h and then treated with 1 nM DHT for 16 h. When appropriate, bicalutamide was added 2 h before DHT stimulation. Isolation of RNA and cDNA synthesis was performed as described (21). Quantitative real-time RT-PCR was performed with SYBR Green PCR Master Mix (Applied Biosystems, Foster City, Calif.) on an ABI 7300 instrument. PSA mRNA was measured relative to β-glucuronidase as an endogenous control.

[3] = test system: AR occupancy at the PSA promoter and enhancer; assay: Chromatin immunoprecipitation with anti-AR, PSA promoter and enhancer; format: cell-based
Procedure: LNCaP cells were plated in 15-cm diameter plates at a density of 2×10^6 cells per plate. Media, polyamide treatment, time course, and DHT stimulation were the same as described above. After the 16-h DHT treatment, cells were treated with 1% formaldehyde for 10 min. Chromatin was isolated and sheared. Antibodies to AR (AR-20, Santa Cruz Biotechnology, Santa Cruz, Calif.) were used to immunoprecipitate AR-bound DNA fragments. Crosslinks were reversed, and PCRs using primers targeted to the regions of interest were used to assess enrichment of bound fragments as compared with mock-precipitated (no antibody) controls. PCRs were monitored with SYBR Green PCR Master Mix (Applied Biosystems) on an ABI 7300 instrument. Primer sequences and a more detailed experimental protocol are available upon request.

[4] = test system: FKBP5 mRNA expression in LNCaP cells; assay: DHT-induced FKBP5 mRNA in LNCaP cells; format: cell-based
[5] = test system: AR occupancy at the FKBP5 intronic enhancer; assay: Chromatin immunoprecipitation with anti-AR, FKBP5 fifth intron enhancer; format: cell-based; settings: 10 μM
[6] = test system: transcripts in DHT-stimulated LNCaP cells; assay: Gene expression with Affymetrix Human Genome U133 Plus 2.0 arrays, DHT-stimulated LNCaP cells; format: cell-based
Procedure: LNCaP cells were plated in 12-well plates at a density of 80-100×10^3 cells per well. Media, polyamide treatments, and time courses were the same as described above. Bicalutamide was added 2 h before DHT stimulation. RNA was isolated as described in ref. 21. From this point, experiments were carried out at the Millard and Muriel Jacobs Gene Expression Facility at the California Institute of Technology. Labeled mRNA was hybridized to Affymetrix high-density Human Genome U133 Plus 2.0 arrays according to established protocols. Gene expression was analyzed by using Resolver (Rosetta Biosoftware, Seattle, Wash.). Data were uploaded to the Gene Expression Omnibus repository (accession no. GSE7708).
Global effects of polyamides 1 and 2 and bicalutamide on gene expression in DHT-stimulated LNCaP cells were monitored with Affymetrix (Santa Clara, Calif.) high-density Human Genome U133 Plus 2.0 arrays, which interrogate >50,000 transcripts.

[7] = test system: GILZ mRNA expression in A549 cells; assay: Dexamethasone-induced GILZ mRNA in A549 cells, quantitative real-time RT-PCR; format: cell-based
[8] = Multiple-dose subcutaneous injections, male C57BL/6J mice; format: in vivo; settings: 1 mg/kg SC every 3 days
Procedure: In addition to single dose injections, the effects of repeated dosing of polyamides 77-80 in mice were examined. In this experiment, 8 week-old male C57BL/6J mice (n=3 per dosing group) were treated with 1 mg/kg of polyamides 77-80 by subcutaneous injection every 3 days, for a cycle of three injections and then sacrificed two days after the final injection (FIG. 31A). As in the single dosing experiments, two mice per group were subjected to histopathology analysis and all blood samples were sent for analysis. […] These mice were promptly euthanized.
Serum from treated animals were collected by retroorbital bleeding. […] All samples were sent for analysis at IDEXX-RADIL.

[9] = previous assay, 0.3 mg/ml enzyme (34); cited from earlier work
[10] = cited from earlier work
[11] = Liver microsomal stability, human
Procedure: Briefly, each polyamide was incubated with 1 mg/ml human or mouse microsomes at 37° C. The reaction was incubated in 100 mM KH2PO4, 2 mM NADPH, 3 mM MgCl2 at pH 7.4. Samples were also incubated in the absence of NADPH to detect NADPH-free degradation. After 60 min the samples were mixed with an equal volume of ice cold methanol stop solution. The mixture was allowed to sit on ice for at least 10 min and mixed with an equal volume of water. The samples were then centrifuged to remove the precipitates and the samples were analyzed by LC/MS/MS. Data represents % remaining by comparing with time zero concentration. The experiments were performed in duplicate.

[12] = Liver microsomal stability, mouse
[13] = Escalating single dose subcutaneous injections, male C57BL/6J mice (weight, histopathology, serum)
Procedure: Representative mice (n=2 per dosing group unless otherwise noted) were subjected to histopathology analysis by a veterinary pathologist. Blood from all mice was sampled and sent for analysis of serum markers of target organs. […] These mice were euthanized when significant duress was apparent.
All animal experiments were conducted under an approved protocol at the California Institute of Technology. Animals were allowed to adjust for 3 days after arrival before treatment. […] Animals were monitored daily for weight loss over 9 days and sacrificed. […] Weight was recorded on days of injection and at the experiment endpoint.
Sacrificed animals from weight loss experiments were fixed in 10% formalin and sent for histopathology analysis by IDEXX-RADIL. Histopathologic analysis was performed on the cecum, duodenum, heart, ileum, kidney, liver, lung, pancreas, spleen, and stomach. Tissue analysis was performed as a blind study to the identity of the animals.
Serum from treated animals were collected by retroorbital bleeding. Blood samples were centrifuged at 6,000 rpm for 5 min to collect the serum. Serum ALT, AST, total bilirubin, BUN, and creatinine levels were sent for analysis by IDEXX-RADIL. Serum analysis was performed as a blind study to the identity of the animals.

RPB1 = RPB1 protein ELISA in LNCaP cells; format: cell-based; settings: polyamide 10 μM 72 hr; doxorubicin 1 μM 24 hr
Procedure: […] Cells treated with DMSO vehicle and 1 μM doxorubicin for 24 h were used as control. Cellular RBP1 levels were determined by a RPB1 specific ELISA kit (Cusabio Life Sciences) according to manufacturer's instructions. Total cellular p53 protein level was determined with a pan-p53 ELISA kit (Roche) according to manufacturer's instructions. Assays were performed in biological triplicates.

p53 = p53 protein ELISA in LNCaP cells; format: cell-based; settings: polyamide 10 μM 72 hr; doxorubicin 1 μM 24 hr
Procedure: Cellular levels of RPB1 and p53 protein in LNCaP cells after treatment with 10 μM 3 for 72 h were determined by ELISA. Cells treated with DMSO vehicle and 1 μM doxorubicin for 24 h were used as control. Cellular RBP1 levels were determined by a RPB1 specific ELISA kit (Cusabio Life Sciences) according to manufacturer's instructions. Total cellular p53 protein level was determined with a pan-p53 ELISA kit (Roche) according to manufacturer's instructions. Assays were performed in biological triplicates.

[14] = test system: DNA damage in LNCaP cells; assay: Alkaline comet assay in LNCaP cells; settings: polyamide 10 μM 48 h; dox 5 μM 4 h
Procedure: LNCaP cells were plated at 1 million cells per 10 cm plate and allowed to adhere for 24 to 36 h. Cells were then incubated with either 10 μM 77 for 48 h or 5 μM doxorubicin for 4 h. DNA damage was assayed using the Trevigen CometAssay® system and samples were prepared from harvested cells according to the manufacture protocol. Comets were imaged on a confocal microscope (Exciter, Zeiss) at 10× magnification. Percentage of DNA in the tail was determined using Comet Assay Lite IV (Perceptive Instruments). More than one hundred comets were scored for each condition.
LNCaP cells were plated in 6 well plates at 100,000 cells per well and allowed to adhere for 36-48 h. The cells were then incubated with either 10 μM 78 for 48 h or 5 μM doxorubicin for 4 h. DNA damage was assayed using the Trevigen CometAssay system. Cells were harvested by gentle aspiration with PBS and prepared on slides according to the manufacturer's protocol. Comets slides were imaged on a confocal microscope (Exciter, Zeiss) at 10× magnification. Images were scored using Comet Assay Lite IV (Perceptive Instruments). More than 100 comets were scored for each condition. DNA damage is reported as percentage of DNA in the tail.

[15] = 10 μM, + DHT, relative to DHT-induced controls, p ≦ 0.01
[16] = relative to DHT-induced controls, + DHT
[17] = 1 μM, Human, 1 hr at 37° C., 1 mg/ml microsomes
[18] = 1 μM, Mouse, 1 hr at 37° C., 1 mg/ml microsomes

For `CN(CCCNC(=O)c1cccc(C(=O)O)c1)CCCNC(=O)c1cc(NC(=O)c2cc(NC(=O)c3nc(NC(=O)c4cc(NC(=O)[C@H](N)CCNC(=O)c5nc(NC(=O)c6cc(NC(=O)c7cc(NC(=O)c8nccn8C)cn7C)cn6C)cn5C)cn4C)cn3C)cn2C)cn1C` [Polyamide 2], the “binding in the footprinted region” value (ARE of the PSA promoter) was “no measurable binding”, the Ka (ARE of the PSA promoter; ARE consensus half-site 5′-AGAACA-3′) was less than 1e+07 M⁻¹ and the “effect on binding to the labeled duplex” value [1] was “minimal effect”. The “effect on DHT-induced PSA mRNA” value [2] was “more modest effect”, the “effects on cell growth” value ([2]; LNCaP, over the course of the experiment) was “no obvious detrimental effects on cell growth” and the “occupancy of AR at the PSA promoter and enhancer” value ([3]; 1 μM as printed) was “minimal effect”. The “AR occupancy at the PSA promoter and enhancer” value ([3]; 10 μM, FIG. 9 legend) was “not”, the “effect on FKBP5 expression” value [4] was “minimal effect” and the “occupancy of AR at the FKBP5 intronic enhancer” value [5] was “no measurable effect”. The “Number of transcripts down-regulated (fold change ≦ −2.0)” value [6, 15] was 284, the “Number of transcripts down-regulated (fold change ≦ −4.0)” value [6, 15] was 32 and the “Number of transcripts up-regulated (fold change ≧ 2.0)” value [6, 15] was 95. For the same molecule, the “Number of transcripts up-regulated (fold change ≧ 4.0)” value [6, 15] was 11, the “number of transcripts affected by at least 2-fold” value ([6]; 10 μM, P≦0.01, vs DHT-induced controls) was 379 and the “share of interrogated transcripts affected” value ([6]; 10 μM, at least 2-fold) was less than 1%. For the same molecule, the “number of the 88 DHT-repressed transcripts derepressed at least 2-fold” value ([6]; P≦0.01) was 3, the “number of the 199 DHT-induced transcripts inhibited at least 2-fold” value ([6]; P≦0.01) was 20 and the “Fold-change of FKBP5” value [6, 16] was 1.5. The “Fold-change of KLK2” value [6, 16] was −1.1, the “Fold-change of KLK3 (PSA)” value [6, 16] was −1.4 and the “Fold-change of TMPRSS2” value [6, 16] was −1.4. For the same molecule, the “effect on GILZ mRNA induction” value [7] was “more modest effect”.
In the case of `CC(=O)N[C@@H](CNC(=O)c1cc(NC(=O)c2cc(NC(=O)c3cc(NC(=O)c4nccn4C)cn3C)cn2C)cn1C)CC(=O)Nc1cn(C)c(C(=O)Nc2cc(C(=O)Nc3cc(C(=O)Nc4cc(C(=O)NCCCN(C)CCCNC(=O)c5cccc(C(=O)O)c5)n(C)c4)n(C)c3)n(C)c2)n1` [Polyamide 80, ImPyPyPy-3-(R)^AcHNγ-ImPyPyPy-NHMe-IPA], the “liver and kidney histopathology” value [8] is given as “marked hepatocellular necrosis and apoptosis in the liver and hyaline droplet accumulation in the kidneys”, the “weight and physical morbidity” value ([8]; three injections) is given as “dramatic weight loss, loss of mobility, and hunched posture within six days” and the “stability against rat and human microsomes” value [9] is given as “stable”. The “animal toxicity after single subcutaneous administration” value ([10]; female C57BL/6J mice, 77 at 2.5 and 5 mg/kg, 80 at 2.3 and […]) was “acute animal toxicity in addition to weight loss”, the renal clearance ([10]; mouse, in vivo) was “significant renal clearance was exclusive to 80” and the “Mean remaining parent NADPH-free” value [11, 17] was 3.8%. For the same molecule, the “Mean remaining parent with NADPH” value [11, 17] was 3.0%, the “intact after 1 hour incubation” value ([11]; human liver microsomes, with or without NADPH) was “less than 5%” and the “Mean remaining parent NADPH-free” value [12, 18] was 4.9%. The “Mean remaining parent with NADPH” value [12, 18] was 4.0%, the “intact after 1 hour incubation” value ([12]; mouse liver microsomes, with or without NADPH) was “less than 5%” and the “tolerability, behavior and morbidity after single SC dose” value ([13]; 1, 3, 10 mg/kg) was “only tolerated at 1 mg/kg”. For the same molecule, the kidney histopathology ([13]; single SC 1 mg/kg) was “Milder tubular regeneration and karyomegaly”, the liver histopathology ([13]; single SC 1 mg/kg) was “Mild hepatocellular necrosis and apoptosis” and the kidney histopathology ([13]; single SC 3 mg/kg) was “Moderate atypical tubular regeneration”. The liver histopathology ([13]; single SC 3 mg/kg) was “multifocal bridging hepatocellular necrosis and apoptosis”, the spleen histopathology ([13]; single SC 3 mg/kg) was “Mild lymphoid apoptosis in the white pulp of the spleen” and the kidney histopathology ([13]; single SC 10 mg/kg) was “Moderate atypical tubular regeneration”. For the same molecule, the liver histopathology ([13]; single SC 10 mg/kg) was “multifocal bridging hepatocellular necrosis and apoptosis”, the spleen histopathology ([13]; single SC 10 mg/kg) was “Mild lymphoid apoptosis in the white pulp of the spleen” and the “serum kidney markers creatinine and BUN” value ([13]; single SC dose) was “significantly elevated creatinine and BUN at 10 mg/kg, and elevated BUN at 3 mg/kg”. The “serum liver markers AST, ALT, total bilirubin” value ([13]; single SC dose) was “marked and severe elevations of AST, ALT, and total bilirubin at both 3 mg/kg and 10 mg/kg”.
For `COc1cccc2c1C(=O)c1c(O)c3c(c(O)c1C2=O)C[C@@](O)(C(=O)CO)C[C@@H]3O[C@H]1C[C@H](N)[C@H](O)[C@H](C)O1` [doxorubicin, reference compound], the RPB1 protein (RPB1) was “decreases”, the “cellular level of p53 protein” value (p53) was “increases” and the “DNA damage by comet assay” value [14] was “significantly increases comet-tail percent of DNA”.
